Columns and labels:
[1] = system: diet-induced obese (DIO) mice; assay: Weight loss in diet-induced obese; assay type: in vivo, mouse; conditions: 10 nmol/kg
[2] = system: diabetic db/db mouse model; assay: Acute glucose-lowering after single dose in db/db mice; assay type: in vivo
[3] = Pharmacokinetics; assay type: in vivo, rat; conditions: SD male rats, single dose 0.05 mg/kg, plasma, LC-MS/MS, WinNonlin, mean n=3
[4] = system: diabetic db/db mouse model; assay: Long-term glucose-lowering after multiple doses; assay type: in vivo; conditions: db/db mice, kidney injury marker after multiple administration 10 nmol/kg

For Semaglutide, the fat index ([1]; multiple administrations) was “reduced”, the body weight reduction ([1]; multiple administrations over 21 days, n=5) was 21.54% and the “time up to which the decrease of non-fasting blood glucose persisted” value ([2]; single dose 10 nmol/kg) was 24 h. For the same substance, the “lowest non-fasting blood glucose level” value ([2]; single dose 10 nmol/kg subcutaneous, mean±SD, n=6, SD) was 15.57 ± 5.16 mmol/L, the “acute glucose-lowering effect compared with model group” value ([2]; single dose 10 nmol/kg, non-fasting glucose 0-120 hours) was “comparable glucose-lowering effects” and the “half-life (T1/2)” value [3] was 8.17 h. For the same substance, the “mean residence time (MRT0-t), 0-[…]” value [3] was 14.21 h, the “serum creatinine (Scr)” value [4] was “significantly reduced” and the urinary albumin levels [4] was “significantly reduced”.

From article doi:10.1101/2025.03.26.645438v1 (bioRxiv, 2025)
